{"source": "paper PMC10877564", "about": "“Activity of Gut-Derived Nisin-like Lantibiotics against Human Gut Pathogens and Commensals” (ACS Chemical Biology, 2024)", "key": {"[1]": {"test_system": "panel of Gram-positive human pathogens (VRE, MRSA, MRSE, L. monocytogenes, C. difficile)", "assay": "MIC assay against the panel of Gram-positive human pathogens", "assay_type": "cell-based", "details": "pathogen panel, Figure 3A-E; anaerobic", "from_the_text": "(§1) Next, we set out to test the antimicrobial activities of these purified lantibiotics against a panel of Gram-positive bacteria that are representatives of some of the most prevalent human pathogens: VRE, Methicillin-resistant S. aureus USA300 (MRSA), Methicillin-resistant Staphylococcus epidermidis SK135 (MRSE), Listeria monocytogenes 10403S, and Clostridioides difficile VPI10463. We examined the growth of bacteria in a 96-well plate under a concentration gradient of lantibiotics under anaerobic conditions (Figure S2B).\n(§2) Elution Buffer (4 M guanidine hydrochloride, 20 mM Tris HCl, pH 7.5 at 25 °C, 100 mM NaCl, 1 M imidazole). Peptides eluted from the Ni resin were concentrated and desalted using 3 kDa Amicon filters (Millipore). For leader peptide removal, the peptide (1:20 trypsin to peptide) was incubated with the trypsin protease in 50 mM Tris-HCl, pH 8 overnight at 37 °C. Lastly, the core peptides were further purified with HPLC using an Agilent 1200 instrument (Agilent) as specified in general methods. About 1.5 mg recombinant peptide was obtained after HPLC purification per […]\nPurification of blauticin from Blautia producta SCSK\nStationary anaerobic culture of BPSCSK was inoculated 1:100 to 1 L BHIS. Culture was incubated on a heating plate at 37 °C with 220 rpm stirring for 2 days in an anaerobic chamber. Bacteria were pelleted with 15,000 x g centrifugation for 15 min. The supernatant was acidified with acetic acid to pH 5.5 and filtered through a 0.22 um filter. Filtered supernatant was loaded onto a HiTrap SP HP column using an AKTA Pure FPLC, which was eluted sequentially with 3 CV of distilled water, 200 mM NaCl, 400 mM NaCl, 600 mM NaCl, 800 mM NaCl, and 1 M NaCl. The 800 mM NaCl eluate was concentrated with a 3 kDa Amicon filter, followed by dialyzation with DPBS using a 3 kDa Amicon filter. Purification of blauticin was confirmed by SDS-PAGE, VRE inhibition in vitro assay, and MALDI-TOF MS. […]\nFor broth cultures, isolates were grown in pre-reduced BHI supplemented with 5 g/L yeast extract (Difco, BD) and 0.1% L-cysteine under anaerobic condition.\nMinimal Inhibition Concentration (MIC) assay\nAll MIC assays were performed under anaerobic condition. Stationary bacterial culture in BHIS (BHI supplemented with 5 g/L yeast extract and 0.1% L-cysteine) were inoculated 1:100 to wells containing 200 µL BHIS in U-bottom 96-well plates. Lantibiotics were dissolved in DPBS, and concentrations were determined by BCA assay (Pierce) according to the manufacturer’s protocol.\nLantibiotic stock solutions were added to wells to reach desired final concentration, with 3-fold serial dilution across rows to create concentration gradients. Bacteria-inoculated wells without lantibiotics served as control. […]"}, "S. aureus USA300 (MRSA)": {"test_system": "S. aureus USA300 (MRSA)", "assay": "MIC assay, anaerobic broth dilution", "assay_type": "cell-based, Staphylococcus aureus", "details": "BHIS, 37 °C, 48 h, 3-fold serial dilution", "from_the_text": "as §1\nas §2, with “specified” for “specified in general methods. About 1.5 mg recombinant peptide was obtained after HPLC purification per”\nin general methods. […]\nFor broth cultures, isolates were grown in pre-reduced BHI supplemented with 5 g/L yeast extract (Difco, BD) and 0.1% L-cysteine under anaerobic condition. […]\n(§3) All MIC assays were performed under anaerobic condition. […] Lantibiotics were dissolved in DPBS, and concentrations were determined by BCA assay (Pierce) according to the manufacturer’s protocol. […]"}, "[2]": {"test_system": "selected Gram-positive human gut commensals", "assay": "MIC assay against the panel of Gram-positive human gut commensals", "assay_type": "cell-based", "details": "commensal panel, Figure 3F-M; anaerobic", "from_the_text": "Antibiotic treatment may result in collateral damage to commensal bacteria in the human microbiome, leading to dysbiosis and susceptibility to various diseases.[44] How lantibiotics impact Gram-positive commensals from the human gut has remained unclear. Therefore, we performed antimicrobial activity tests of these lantibiotics against selected Gram-positive human gut commensals, most of which belong to the Lachnospiraceae family, one of the most abundant bacterial families in the human gut.[27] In general, human gut commensals were more susceptible to the set of investigated lantibiotics compared to pathogens (Figure 3).\nas §2, §3"}}, "note": "Positions of bridges follow the written chain, without caps; N, C: chain ends. Non-standard residues stand in square brackets, D forms with d. No end group written: not given here. Abu = CC[C@H](N)C(=O)O; Dhb = C/C=C(\\N)C(=O)O; Dha = C=C(N)C(=O)O", "data": [{"substance": "nisin A (I[Dhb]AI[Dha]LC[Abu]PGCK[Abu]GALMGCNMK[Abu]A[Abu]CHCSIHV[Dha]K; thioether 8-11, 13-19, 23-26, 25-28, 3-7; UniProt P13068 24-57, looked up) [prototypical class I lantibiotic produced by L. lactis, food preservative; commercial nisin A]", "values": [{"measurement": "inhibitory activity against pathogens based on MIC (ranking in words)", "setting": "[1]", "result": "strongest inhibitory activities"}, {"measurement": "nisin A MIC", "setting": "S. aureus USA300 (MRSA)", "result": 2.67, "unit": "µM"}, {"measurement": "antimicrobial activity against human gut commensals (ranking in words)", "setting": "[2]", "result": "generally more effective in growth inhibition"}]}]}
